{"source": "patent US5902787A", "about": "“Chemically modified a-macroglobulins, methods of making, and methods of using the same in anti-cytokine therapy” (The University of Virginia Patent Foundation, priority 1997, dated 1999)", "key": {"interferon-γ": {"system": "interferon-γ", "details": "literature (Wolf et al.); cited from earlier work"}, "[1]": {"system": "ciliary neurotrophic factor", "details": "literature (Wolf et al.); cited from earlier work"}, "LPS-challenged mice": {"system": "LPS-challenged mice", "assay": "LPS challenge, MAC pre-treatment, survival", "type": "in vivo, CD-1 female mice", "details": "2.5 mg IP 60 min prior to intravenous LPS", "experimental": "Survival curves for LPS-challenged mice, with or without MAC pre-treatment.CD-5 female mice were injected EP with 2.5 mg MAC (.box-solid.) or an equivalent volume of PBS (.circle-solid.). After 60 min, the mice were anesthetized and 57 mg/kg LPS were injected intravenously. The mice were monitored for up to 5 days and then sacrificed. Survival data are presented in panel a. In panel b, mice were injected IP with 2.0 mg MAC (Δ), 1.0 mg MAC (.smallcircle.), or 2.5 mg of native human α2 M (.quadrature.). LPS was injected 60 min later.\nCD-1 female mice were obtained from Charles River Breeding Laboratories. Animals were kept on a 12:12 h dark-light cycle. Mice were anesthetized with diethyl ether prior to intravenous injections of LPS. All animals were observed on a continuous basis. Those entering a moribund condition were euthanized by cervical dislocation under anesthesia."}, "TNF-α [2]": {"target": "TNF-α", "details": "literature (Wolf et al.); read-out: KD, TNF-α binding to α2M; cited from earlier work"}, "mice": {"system": "mice", "assay": "Toxicity of IP human MAC in mice", "type": "in vivo", "details": "1.0, 2.5 or 5.0 mg IP, 5 days of observation", "protocol": "Equivalent concentrations of human α2 M (native, unmodified form) were injected IP in separate animals, as a control. Each concentration of MAC or human α2 M was studied in duplicate. […] The animals were sacrificed after 5 days of observation."}, "TNF-α [3]": {"system": "TNF-α", "assay": "Nondenaturing PAGE binding of 125I-TNF-α to α2M forms", "details": "125I-TNF-α 1 nM, α2M preparation 1.0 μM, 1 h at 37° C", "protocol": "Nondenaturing PAGE was performed on 5% slabs.\nThe incubation mixtures were then subjected to nondenaturing PAGE, a method that allows recovery of noncovalent as well as covalent α2 M-cytokine complexes. Gonias et al., Ann. […] The TNF-α was detected by autoradiography or Phosphor-Imager analysis.\nCrookston et al, Wollenberg et at., Amer. J. Pathol."}}, "data": [{"molecule": "native human α2 M: α2-macroglobulin purified from human plasma, native unmodified form", "values": [{"measurement": "binding of interferon-γ to α2M", "setting": "interferon-γ", "value": "do not bind"}, {"measurement": "binding of ciliary neurotrophic factor to α2M", "setting": "[1]", "value": "do not bind"}, {"measurement": "animals that died within 24 h (deaths/total)", "setting": "LPS-challenged mice", "value": "4/4"}, {"measurement": "Kd", "setting": "TNF-α [2]", "value": "5 to 10", "unit": "µM"}, {"measurement": "tolerability (neurologic status, respiratory rate, eating and drinking, general behavior)", "setting": "mice", "value": "without outward changes in physiology"}, {"measurement": "binding of 125I-TNF-α (nondenaturing PAGE)", "setting": "TNF-α [3]", "value": "not detected"}]}, {"molecule": "native murine α2 M: α2-macroglobulin purified from the plasma of CD-1 female mice, native form (protein, UniProt Q61838 25-1495, looked up) Pregnancy zone protein: ATAKPQYVVLVPSEVYSGVPEKACVSLNHVNETVMLSLTLEYAMQQTKLLTDQAVDKDSFYCSPFTISGSPLPYTFITVEIKGPTQRFIKKKSIQIIKAESPVFVQTDKPIYKPGQIVKFRVVSVDISFRPLNETFPVVYIETPKRNRIFQWQNIHLAGGLHQLSFPLSVEPALGIYKVVVQKDSGKKIEHSFEVKEYVLPKFEVIIKMQKTMAFLEEELPITACGVYTYGKPVPGLVTLRVCRKYSRYRSTCHNQNSMSICEEFSQQADDKGCFRQVVKTKVFQLRQKGHDMKIEVEAKIKEEGTGIELTGIGSCEIANALSKLKFTKVNTNYRPGLPFSGQVLLVDEKGKPIPNKNITSVVSPLGYLSIFTTDEHGLANISIDTSNFTAPFLRVVVTYKQNHVCYDNWWLDEFHTQADHSATLVFSPSQSYIQLELVFGTLACGQTQEIRIHYLLNEDIMKNEKDLTFYYLIKARGSIFNLGSHVLSLEQGNMKGVFSLPIQVEPGMAPEAQLLIYAILPNEELVADAQNFEIEKCFANKVNLSFPSAQSLPASDTHLKVKAAPLSLCALTAVDQSVLLLKPEAKLSPQSIYNLLPGKTVQGAFFGVPVYKDHENCISGEDITHNGIVYTPKHSLGDNDAHSIFQSVGINIFTNSKIHKPRFCQEFQHYPAMGGVAPQALAVAASGPGSSFRAMGVPMMGLDYSDEINQVVEVRETVRKYFPETWIWDLVPLDVSGDGELAVKVPDTITEWKASAFCLSGTTGLGLSSTISLQAFQPFFLELTLPYSVVRGEAFTLKATVLNYMSHCIQIRVDLEISPDFLAVPVGGHENSHCICGNERKTVSWAVTPKSLGEVNFTATAEALQSPELCGNKLTEVPALVHKDTVVKSVIVEPEGIEKEQTYNTLLCPQDTELQDNWSLELPPNVVEGSARATHSVLGDILGSAMQNLQNLLQMPYGCGEQNMVLFVPNIYVLNYLNETQQLTEAIKSKAINYLISGYQRQLNYQHSDGSYSTFGNHGGGNTPGNTWLTAFVLKAFAQAQSHIFIEKTHITNAFNWLSMKQKENGCFQQSGYLLNNAMKGGVDDEVTLSAYITIALLEMPLPVTHSAVRNALFCLETAWASISQSQESHVYTKALLAYAFALAGNKAKRSELLESLNKDAVKEEDSLHWQRPGDVQKVKALSFYQPRAPSAEVEMTAYVLLAYLTSESSRPTRDLSSSDLSTASKIVKWISKQQNSHGGFSSTQDTVVALQALSKYGAATFTRSQKEVLVTIESSGTFSKTFHVNSGNRLLLQEVRLPDLPGNYVTKGSGSGCVYLQTSLKYNILPVADGKAPFALQVNTLPLNFDKAGDHRTFQIRINVSYTGERPSSNMVIVDVKMVSGFIPMKPSVKKLQDQPNIQRTEVNTNHVLIYIEKLTNQTLGFSFAVEQDIPVKNLKPAPIKVYDYYETDEFTVEEYSAPFSDGSEQGNA", "values": [{"measurement": "binding of 125I-TNF-α (nondenaturing PAGE)", "setting": "TNF-α [3]", "value": "the level of binding was low"}]}]}
